Results from patent publication US20230292743A1, “Method for increasing the lifespan and motility of animal sperm using an inhibitor of Slo3 potassium channel” (IMV TECHNOLOGIES, priority 2017, published 2023).

Key:
bovine sperm [1] = experiment: Ability of frozen-thawed bovine capacitated sperm to fertilize oocytes after 24 h incubation in sp-TALP (2-cell embryos, blastocysts); format: cell-based; settings: 0.2 μM clofilium in sp-TALP 24 h prior fertilization, vs control 24 h
Protocol: Bovine sperm was obtained by ejaculation. Ejaculate was diluted 1:1 in Optixcell. After 10 minutes of 34° C. incubation, semen was then diluted to a final concentration of 57 million of spermatozoa/mL in Optixcell. Optixcell is a TRIS citrate buffer containing liposomes extruded from egg yolk lecithins, glycerol and antibiotics described by CEE (Directive 88/407/CEE). Diluted semen was slowly cooled down to 4° C. (3 to 4 h equilibration in a tempered water-bath), 0.25 mL straws were filled and then frozen in a controlled rate freezer at a cooling rate of 5° C./min from 4° C. to −10° C., 40° C./min from −10° C. to −110° C., 15° C./min from −110° C. to […]. Straws were then stored in liquid nitrogen until in vitro fertilization. Straws were thawed in a water-bath at 37° C. for 45 s. Each straw was wiped with 70° ethanol before being opened. […] Sperm concentration was measured and 750 000 sperm cells are injected into a fertilization droplet (500 μL) containing oocytes bathing in fertilization medium. […] Sperm (1.5 M/mL) and cumulus oocyte complexes (COCs) co-culture were performed at 38.5° C. under gaseous atmosphere of 5% v/v CO2 and saturated humidity for 48 h and then fertilization outcome was assessed. […] Cleavage rate assessed at 48 h and blastocyst rate at day 9 post-fertilization. […]

bovine sperm [2] = experiment: Bovine sperm motility by CASA analysis (VCL, total motility) after 24 h in capacitation medium; format: cell-based; settings: 24 h in capacitation medium at 37° C., vs control
Protocol: For motility, sperm were incubated with 0.2, 0.5, 1 and 5 μM clofilium diluted in the capacitation medium for 24 hours at 37° C. under saturated humidity. Sperm motility was measured using Computer Assisted Semen Analysis (CASA analysis). The CASA analysis was performed using a CEROS™, Hamilton Thorne Bioscience, USA. VCL (curvilinear velocity) was then measured. 2. The viability of the capacitated sperm was determined by the measurement of the sperm motility. The motility analysis was carried out as in Example 1.3. The first results are shown in FIGS. 6A and 6B, which illustrates the motility (in terms of VCL, in μm/s), i.e. the sperm velocity, sperm being incubated 24 h in a capacitation medium prior CASA, for each of the solutions tested: control (“[0 μM]”), 0.2 μM clofilium (“[0.2 μM]”), 0.5 μM clofilium (“[0.5 μM]” or “[0.5]”), 1 μM clofilium (“[1 μM]” or “[1]”) and 5 μM clofilium (“[5 μM]” or “[5]”) (FIG. 6A) and which illustrates the total motility (%), for each of the solutions tested “[0μM ]”, “[0.2 μM]” (or “[0.2]”), “[0.5 μM ]” (or “[0.5]”), “[1 μM ]” (or “[1]”) and “[5 μM ]” (or “[5]”) (FIG. 6B). As known to the skilled person, the “total motility”indicates the overall percentage of sperm that are moving in any direction (VAP>1μm/s).

## CCCCCCC[N+](CC)(CC)CCCCc1ccc(Cl)cc1 [clofilium]
Bovine sperm [1]
  percentage of blastocysts vs matured oocytes 9 days after fertilization: improves the yield of bovine blastocysts
Bovine sperm [2]; 0.2 μM clofilium
  motility (in terms of VCL), sperm velocity: higher velocity than the non-treated
Bovine sperm [2]; 0.5 μM clofilium
  motility (in terms of VCL), sperm velocity: higher velocity than the non-treated
Bovine sperm [2]; 1 μM clofilium
  motility (in terms of VCL), sperm velocity: higher velocity than the non-treated
